In brackets after ≈: the same amount, converted by molar mass.

Assay [1] deals with Mycobacterium tuberculosis. Description: Minimum inhibitory concentration required to inhibit 90% of the inoculum of tuberculosis H37Rv. The class given is functional.
For assay [2], the system named is Mycobacterium tuberculosis. Nature of the assay: In vitro anti-mycobacterial activity against Mycobacterium tuberculosis H37Rv. The class given is functional. Set-up: concentration or dose not given beside the values.
Assay [3] is described as follows: Ratio of minimum bactericidal concentration (MBC) against INH-R to that of minimum inhibitory concentration (MIC) to H37Rv in Alamar assay(Mycobacterium tuberculosis). The class given is functional.
Assay [4] is described as follows: Ratio of minimum bactericidal concentration (MBC) against RMP-R to that of minimum inhibitory concentration (MIC) to H37Rv in Alamar assay(Mycobacterium tuberculosis). The class given is functional.
Assay [5] concerns Mycobacterium tuberculosis. Description: Minimum bactericidal concentration (MBC) against INH-R. The class given is functional.
Assay [6] has as its system Mycobacterium tuberculosis. Description: Minimum inhibitory concentration against Mycobacterium tuberculosis strain, INH-R. The class given is functional.
Assay [7] has as its system Mycobacterium tuberculosis. Description: Minimum inhibitory concentration against Mycobacterium tuberculosis strain, Erdman. The class given is functional.
A short description of assay [8]: Ratio of minimum bactericidal concentration (MBC) against H37Rv to that of minimum inhibitory concentration (MIC) to H37Rv in Alamar assay(Mycobacterium tuberculosis). The class given is functional.
For assay [9], the system named is Mycobacterium tuberculosis. Nature of the assay: Minimum inhibitory concentration against Mycobacterium tuberculosis strain, EMB-R. The class given is functional.
The subject of assay [10] is Mycobacterium tuberculosis. Nature of the assay: Minimum inhibitory concentration against Mycobacterium tuberculosis strain, KM-R. The class given is functional.
Assay [11] has as its system Mycobacterium tuberculosis. Description: Minimum inhibitory concentration against Mycobacterium tuberculosis strain H37Rv, using Alamar assay. The class given is functional.
The next assay has as its system Vero. Nature of the assay: In vitro cytotoxicity was determined against VERO cells. The class given is functional, cell-based. The following applies: Chlorocebus sabaeus.
Assay [12] relates to Mycobacterium tuberculosis. Description: Minimum inhibitory concentration against Mycobacterium tuberculosis strain, RMP-R. The class given is functional.
Assay [13] concerns Mycobacterium tuberculosis. Description: Minimum inhibitory concentration against Mycobacterium tuberculosis strain, CIP-R. The class given is functional.
Assay [14] concerns Mycobacterium tuberculosis. Nature of the assay: Minimum bactericidal concentration (MBC) against H37Rv. The class given is functional.
The subject of assay [15] is Mycobacterium tuberculosis. Nature of the assay: Minimum bactericidal concentration (MBC) against RMP-R. The class given is functional.

With `Cc1cc(C(C)C)nc2c(C(C)C)cccc12`, the MIC in assay [1] is above 6.25 µg/mL. The Inhibition in assay [2] was 71%.
The like results for `Cc1cc(C23CC4CC(CC(C4)C2)C3)nc2ccccc12` were, in that order, above 69.2 µg/mL and 76%.
Turning to `Cc1cc(C2CCCC2)nc2c(C3CCCC3)cccc12`, the results for the Ratio in assay [3], in [4] and in assay [8] were 4 µg/mL, 8 µg/mL and 2 µg/mL, respectively. Also, the MIC was above 6.25 µg/mL in [1]; 12.5 µg/mL (≈ 44.7 µM) in assay [6]; 50 µg/mL (≈ 179 µM) in [7]; 12.5 µg/mL (≈ 44.7 µM) in [9]; 25 µg/mL (≈ 89.5 µM) in assay [10]; 25 µg/mL (≈ 89.5 µM) in assay [11]. For the same compound, the MIC in [12] and in assay [13] was 12.5 µg/mL (≈ 44.7 µM) in each case. The MBC was 100 µg/mL (≈ 358 µM) in assay [5], 50 µg/mL (≈ 179 µM) in assay [14] and 200 µg/mL (≈ 716 µM) in assay [15]. The same compound returned an Inhibition in assay [2] of 100%. In addition, the IC50 with Vero is above 50 µg/mL.
In turn, `Cc1cc(C2CCCCC2)nc2c(C3CCCCC3)cccc12` had an MIC in assay [1] above 6.25 µg/mL. The compound further showed an Inhibition in [2] of 53%.
In turn, `CCCCCc1cc(C)c2cccc(CCCCC)c2n1` returned an MIC in assay [1] above 6.25 µg/mL. The compound also displayed an Inhibition in [2] of 29%.
The like results for `Cc1cc(C2CCC2)nc2c(C3CCC3)cccc12` were, in that order, 12.5 µg/mL (≈ 49.7 µM) and 100%.
Consider `Cc1cc(C(C)C)nc2ccccc12`, for which the MIC in [1] was above 6.25 µg/mL. Further, the Inhibition in [2] stood at 57%.
Take `Cc1cc(C2CCC2)nc2ccccc12`: the MIC in assay [1] was above 6.25 µg/mL. The Inhibition in assay [2] is 67%.
In turn, `CCCCCCc1cc(C)c2cccc(CCCCCC)c2n1` displayed a minimum inhibitory concentration (MIC) in [1] above 6.25 µg/mL. This compound came in with an Inhibition in [2] of 23%.
Consider `CCCc1cc(C)c2cccc(CCC)c2n1`, for which the MIC in assay [1] is above 6.25 µg/mL. Also, in assay [2], the Inhibition is on record as 36%.
On to `CCCCCc1cc(C)c2ccccc2n1`, for which the MIC in assay [1] is above 6.25 µg/mL. This compound returned an Inhibition in [2] of 24%.
`CCCCc1cc(C)c2cccc(CCCC)c2n1` yielded an MIC in [1] of 6.25 µg/mL (≈ 24.5 µM). The compound further returned an Inhibition in assay [2] of 33%.
In the case of `Cc1cc(C2CC2)nc2ccccc12`, the MIC in assay [1] was above 6.25 µg/mL. Also, the Inhibition in assay [2] was 29%.
Taken in the same sequence, the figures for `Cc1ccnc2ccccc12` were above 6.25 µg/mL and 0%.
The like results for `CCCc1cc(C)c2ccccc2n1` were, in that order, above 6.25 µg/mL and 30%.
In turn, `Cc1cc(C2CCCC2)nc2ccccc12` registered an MIC in assay [1] above 6.25 µg/mL. This compound also returned an Inhibition in assay [2] of 74%.
Taken in the same sequence, the figures for `CCCCc1cc(C)c2ccccc2n1` were above 6.25 µg/mL and 28%.
Taken in the same sequence, the figures for `Cc1cc(C2CCCCC2)nc2ccccc12` were above 6.25 µg/mL and 16%.
In the case of `CCCCCCc1cc(C)c2ccccc2n1`, the MIC in [1] is above 6.25 µg/mL. The same compound had an Inhibition in assay [2] of 20%.

Usually MIC stands for the lowest concentration found to suppress growth. As usually defined, the Inhibition is the percentage by which the read-out fell short of the control. For orientation: MBC means the smallest concentration meeting the test's criterion for killing. Usually IC50 stands for the point on the concentration scale where inhibition reaches its midpoint.

Source of the values: ChEMBL document CHEMBL1136642, “Substituted 4-methylquinolines as a new class of anti-tuberculosis agents” (Bioorg Med Chem Lett, 2003).
